# Biological target: IRAK4 (Homo sapiens (Human), UniProt Q9NWZ3)
# Test: IRAK4 Inhibition Assay
# Format: biochemical
# Conditions: ATP 500 μM; IRAK4 0.6 nM; 60 min at room temperature
# Protocol: The assays were performed in U-bottom 384-well plates. […] The reaction was initiated by the combination of IRAK4 with substrates and test compounds. The reaction was incubated at room temperature for 60 min. and terminated by adding 45 μL of 35 mM EDTA to each sample. The reaction mixture was analyzed on the Caliper LABCHIP® 3000 (Caliper, Hopkinton, Mass.) by electrophoretic separation of the fluorescent substrate and phosphorylated product.
# Chain of IRAK4 (Q9NWZ3 whole entry, species assumed): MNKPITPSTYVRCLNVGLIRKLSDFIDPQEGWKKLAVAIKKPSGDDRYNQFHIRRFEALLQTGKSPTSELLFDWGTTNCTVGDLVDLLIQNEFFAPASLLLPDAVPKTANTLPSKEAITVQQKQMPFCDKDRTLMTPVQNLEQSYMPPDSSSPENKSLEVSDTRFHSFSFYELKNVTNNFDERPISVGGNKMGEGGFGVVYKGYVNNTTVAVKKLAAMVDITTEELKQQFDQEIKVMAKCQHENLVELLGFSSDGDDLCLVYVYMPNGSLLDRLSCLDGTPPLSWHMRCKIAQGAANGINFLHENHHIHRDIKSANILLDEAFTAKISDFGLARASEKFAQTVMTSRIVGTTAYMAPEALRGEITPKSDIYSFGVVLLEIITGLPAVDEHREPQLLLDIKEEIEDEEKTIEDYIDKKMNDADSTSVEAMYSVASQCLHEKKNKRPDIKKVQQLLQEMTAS
row,SMILES,IC50 [nM]
1,CNC(=O)c1cc(F)c(Nc2cc(Nc3ccc4ncsc4c3)ncc2C(=O)NC[C@@H](F)C(C)(C)O)cc1F [Example 78],8.6
2,CC(C)(C)Nc1cc(Nc2ccc3ncsc3c2)ncc1C(=O)NC[C@@H](F)C(C)(C)O [Example 83],11.5
3,Cc1cc(O)ccc1Nc1cc(Nc2ccc3ncsc3c2)ncc1C(=O)NC[C@@H](F)C(C)(C)O [Example 86],11.4
4,CC(C)(O)[C@H](F)CNC(=O)c1cnc(Nc2ccc3ncsc3c2)cc1NC1CC2CCC1C2 (stereo partly shown) [Example 89],2.6
5,CC(Nc1cc(Nc2ccc3ncsc3c2)ncc1C(=O)NC[C@@H](F)C(C)(C)O)C(F)(F)F (stereo partly shown) [Example 91],3.7
6,CC(C)(O)[C@H](F)CNC(=O)c1cnc(Nc2ccc3ncsc3c2)cc1NCC1CCCO1 (stereo partly shown) [Example 93],16
7,CC(C)(O)[C@H](F)CNC(=O)c1cnc(Nc2ccc3ncsc3c2)cc1NCC1CCCO1 (stereo partly shown) [Example 94],13
8,CCNc1cc(Nc2ccc3ncsc3c2)ncc1C(=O)NC[C@@H](F)C(C)(C)O [Example 96],4.3
9,CC(C)(O)[C@H](F)CNC(=O)c1cnc(Nc2ccc3nonc3c2)cc1NCC(F)(F)F [Example 100],21.7
10,CC(C)(O)[C@H](F)CNC(=O)c1cnc(Nc2ccc3ncsc3c2)cc1NC(C1CC1)C1CC1 [Example 101],54.8
11,CC(C)(O)[C@H](F)CNC(=O)c1cnc(Nc2ccc3nsnc3c2)cc1N[C@@H](c1ccccc1)[C@H](O)CO [Example 102],2.9
12,CC(C)(C)CNc1cc(Nc2ccc3nccnc3c2)ncc1C(=O)NC[C@@H](F)C(C)(C)O [Example 103],13.4
13,CC1CCCC1Nc1cc(Nc2ccc3ncsc3c2)ncc1C(=O)NC[C@@H](F)C(C)(C)O (stereo partly shown) [Example 104],2.5
14,CC1CCCC1Nc1cc(Nc2ccc3ncsc3c2)ncc1C(=O)NC[C@@H](F)C(C)(C)O (stereo partly shown) [Example 105],1.9
15,CC(Nc1cc(Nc2ccc3ncsc3c2)ncc1C(=O)NC[C@@H](F)C(C)(C)O)C1CC1 (stereo partly shown) [Example 106],58
16,CC(C)(O)[C@H](F)CNC(=O)c1cnc(Nc2ccc3ncsc3c2)cc1NCC(F)(F)C(C)(C)O [Example 107],3.9
17,CC(C)(O)[C@H](F)CNC(=O)c1cnc(Nc2ccc3ncsc3c2)cc1NC1C2CCCC21 (stereo partly shown) [Example 108],2.3
18,CC(C)(O)[C@H](F)CNC(=O)c1cnc(Nc2ccc3ncsc3c2)cc1NC1C2CCCC21 (stereo partly shown) [Example 109],5.8
19,CC(C)(O)[C@H](F)CNC(=O)c1cnc(Nc2ccc3ncoc3c2)cc1NCC(F)(F)F [Example 110],12.6

# Other lines, results leading:
row,IC50 [nM],SMILES
1,18.9,CC(C)(O)[C@H](F)CNC(=O)c1cnc(Nc2ccc3nc(N)ccc3c2)cc1NC1CC1 [Example 75]
2,5.6,CC(C)(O)[C@H](F)CNC(=O)c1cnc(Nc2ccc3cnccc3n2)cc1NC1CC1 [Example 79]
3,8,CC(C)(O)[C@H](F)CNC(=O)c1cnc(Nc2ccc3nccnc3c2)cc1NC1CC1 [Example 82]
4,5.1,CC(C)(O)[C@H](F)CNC(=O)c1cnc(Nc2ccc3nccn3n2)cc1NC1CC1 [Example 85]
5,5.3,CC(C)(O)[C@H](F)CNC(=O)c1cnc(Nc2ccc3ncsc3c2)cc1NC1CCCCCC1 [Example 87]
6,9,CC(C)(O)[C@H](F)CNC(=O)c1cnc(Nc2ccc3nccnc3c2)cc1NC1CCCCCC1 [Example 88]
7,4.8,CC(C)(O)[C@H](F)CNC(=O)c1cnc(Nc2ccn3nccc3c2)cc1NC1CC1 [Example 92]
8,1.9,CC(C)(O)[C@H](F)CNC(=O)c1cnc(Nc2ccc3nccnc3c2)cc1NC1CC2CCC1C2 (stereo partly shown) [Example 95]
9,16.4,CC(C)(O)[C@H](F)CNC(=O)c1cnc(Nc2ccc3nccnc3n2)cc1NC1CC1 [Example 97]
10,7.2,CC(C)(O)[C@H](F)CNC(=O)c1cnc(Nc2ccc3nonc3c2)cc1NC1CCC1 [Example 98]

# System: TLR2 induced IL-6 in peripheral blood mononuclear cells (PBMCs)
# Test: PBMC TLR2 Induced IL-6 Assay
# Format: cell-based, human
# Conditions: Homo sapiens, PBMC, 5 h, human PBMCs, 10 μg/ml lipoteichoic acid for 5 hours, IL-6 by ELISA; value without asterisk; read-out: Cell IC50
# Protocol: Peripheral blood mononuclear cells (PBMCs) were isolated from human blood containing the anti-coagulant EDTA (2.5 mM) by centrifugation over a FICOLL® gradient. PBMCs (250000 cells/well) were cultured in assay media (RPMI with 10% heat inactivated FCS) with compounds for 30 minutes at 37° C. in a 5% CO2 incubator. Following pretreatment with compounds, cells were stimulated for 5 hours with 10 μg/ml lipoteichoic acid (Invivogen, San Diego, Calif.), a TLR2 agonist. At the end of the culture, plates were centrifuged at 1800 rpm for 10 minutes to pellet the cells. Supernatants were harvested and analyzed for IL-6 levels by ELISA (BD Biosciences, San Jose, Calif.). Inhibition was calculated as either an IC50 or EC50. EC50 determinations are indicated with an asterisk.
row,SMILES,IC50 [nM]
1,CC(C)(O)[C@H](F)CNC(=O)c1cnc(Nc2ccc3nc(N)ccc3c2)cc1NC1CC1 [Example 75],710
2,CNC(=O)c1cc(F)c(Nc2cc(Nc3ccc4ncsc4c3)ncc2C(=O)NC[C@@H](F)C(C)(C)O)cc1F [Example 78],282
3,CC(C)(O)[C@H](F)CNC(=O)c1cnc(Nc2ccc3cnccc3n2)cc1NC1CC1 [Example 79],48
4,CC(C)(O)[C@H](F)CNC(=O)c1cnc(Nc2ccc3nccnc3c2)cc1NC1CC1 [Example 82],366
5,CC(C)(C)Nc1cc(Nc2ccc3ncsc3c2)ncc1C(=O)NC[C@@H](F)C(C)(C)O [Example 83],133
6,CC(C)(O)[C@H](F)CNC(=O)c1cnc(Nc2ccc3nccn3n2)cc1NC1CC1 [Example 85],195
7,Cc1cc(O)ccc1Nc1cc(Nc2ccc3ncsc3c2)ncc1C(=O)NC[C@@H](F)C(C)(C)O [Example 86],281
8,CC(C)(O)[C@H](F)CNC(=O)c1cnc(Nc2ccc3ncsc3c2)cc1NC1CCCCCC1 [Example 87],271
9,CC(C)(O)[C@H](F)CNC(=O)c1cnc(Nc2ccc3nccnc3c2)cc1NC1CCCCCC1 [Example 88],457
10,CC(C)(O)[C@H](F)CNC(=O)c1cnc(Nc2ccc3ncsc3c2)cc1NC1CC2CCC1C2 (stereo partly shown) [Example 89],32
11,CC(Nc1cc(Nc2ccc3ncsc3c2)ncc1C(=O)NC[C@@H](F)C(C)(C)O)C(F)(F)F (stereo partly shown) [Example 91],64
12,CC(C)(O)[C@H](F)CNC(=O)c1cnc(Nc2ccn3nccc3c2)cc1NC1CC1 [Example 92],177
13,CC(C)(O)[C@H](F)CNC(=O)c1cnc(Nc2ccc3ncsc3c2)cc1NCC1CCCO1 (stereo partly shown) [Example 93],619
14,CC(C)(O)[C@H](F)CNC(=O)c1cnc(Nc2ccc3nccnc3c2)cc1NC1CC2CCC1C2 (stereo partly shown) [Example 95],58
15,CCNc1cc(Nc2ccc3ncsc3c2)ncc1C(=O)NC[C@@H](F)C(C)(C)O [Example 96],170
16,CC(C)(O)[C@H](F)CNC(=O)c1cnc(Nc2ccc3nccnc3n2)cc1NC1CC1 [Example 97],302
17,CC(C)(O)[C@H](F)CNC(=O)c1cnc(Nc2ccc3nonc3c2)cc1NC1CCC1 [Example 98],165
18,CC(C)(O)[C@H](F)CNC(=O)c1cnc(Nc2ccc3nonc3c2)cc1NCC(F)(F)F [Example 100],830
19,CC(C)(O)[C@H](F)CNC(=O)c1cnc(Nc2ccc3ncsc3c2)cc1NC(C1CC1)C1CC1 [Example 101],570
20,CC(C)(O)[C@H](F)CNC(=O)c1cnc(Nc2ccc3nsnc3c2)cc1N[C@@H](c1ccccc1)[C@H](O)CO [Example 102],312
21,CC(C)(C)CNc1cc(Nc2ccc3nccnc3c2)ncc1C(=O)NC[C@@H](F)C(C)(C)O [Example 103],411
22,CC1CCCC1Nc1cc(Nc2ccc3ncsc3c2)ncc1C(=O)NC[C@@H](F)C(C)(C)O (stereo partly shown) [Example 104],350
23,CC(Nc1cc(Nc2ccc3ncsc3c2)ncc1C(=O)NC[C@@H](F)C(C)(C)O)C1CC1 (stereo partly shown) [Example 106],570
24,CC(C)(O)[C@H](F)CNC(=O)c1cnc(Nc2ccc3ncsc3c2)cc1NCC(F)(F)C(C)(C)O [Example 107],174
25,CC(C)(O)[C@H](F)CNC(=O)c1cnc(Nc2ccc3ncsc3c2)cc1NC1C2CCCC21 (stereo partly shown) [Example 108],507
26,CC(C)(O)[C@H](F)CNC(=O)c1cnc(Nc2ccc3ncoc3c2)cc1NCC(F)(F)F [Example 110],728

# Same assay, conditions: human PBMCs, 10 μg/ml lipoteichoic acid for 5 hours, IL-6 by ELISA; value without asterisk; read-out: Cell IC50
row,SMILES,IC50 [nM]
1,CC(C)(O)[C@H](F)CNC(=O)c1cnc(Nc2ccc3ncsc3c2)cc1NCC1CCCO1 (stereo partly shown) [Example 94],339
2,CC1CCCC1Nc1cc(Nc2ccc3ncsc3c2)ncc1C(=O)NC[C@@H](F)C(C)(C)O (stereo partly shown) [Example 105],321
3,CC(C)(O)[C@H](F)CNC(=O)c1cnc(Nc2ccc3ncsc3c2)cc1NC1C2CCCC21 (stereo partly shown) [Example 109],454

# — patent US9546153B2, “Bicyclic heterocycle substituted pyridyl compounds useful as kinase modulators” (BRISTOL-MYERS SQUIBB COMPANY, priority 2012, dated 2017)
